Test results: patent US10351573B2, “Benzoic acid, benzoic acid derivatives and heteroaryl carboxylic acid conjugates of hydrocodone, prodrugs, methods of making and uses thereof” (KemPharm, Inc., priority 2009, dated 2019)
Counter-ions that a name gives are not always drawn. Like-named read-outs stand apart in the source and are kept apart here.

How the values were obtained:
[1] = Water solubility / feasibility of intranasal or intravenous dosing; conditions: water
[2] = Example 23: Bz-HC.HCl API single dose intranasal human PK study vs HB API; format: in vivo, humans; conditions: 13.34 mg Bz-HC•HCl API; for AUC(0-t) / AUC(0-inf) / half-life / Cmax: 13.34 mg
Excerpt: This was a randomized, double blind, single dose, two way crossover, single center study in recreational non-dependent opioid users. Subjects participated in a Screening Phase (Visit 1), Naloxone Challenge Test (Visit 2, Check in), Treatment Phase (Visit 2, inpatient) and Follow up Phase (Visit 3).
A sufficient number of male and female subjects between the ages of 18-55 years were to be screened in order to enroll approximately 30 subjects into the Treatment Phase to ensure 24 completers.

[3] = Example 22: intranasal crushed / oral intact tablets human PK study vs HB/APAP
[4] = humans, fasted, oral, equimolar doses

For `COc1ccc2c3c1O[C@H]1C(OC(=O)c4ccccc4)=CC[C@H]4[C@@H](C2)N(C)CC[C@]314` [Bz-HC•HCl, benzoate-hydrocodone hydrochloride], which “water solubility (in words)” value [1] is on record?
Its value is “much less soluble in water than the hydrocodone bitartrate”.

What about the “Bz-HC plasma concentrations at 24 hours post-dose (in words)” value ([2]; all subjects) of the same compound?
The value was “below the limit of quantification”.

What about the Tmax ([2]; both sexes, human, plasma, inhaled or intranasal, read-out: Tmax of Bz-HC, Median (Min-Max)) of the same compound?
The Tmax was 0.25 h.

And the AUC(0-t) ([2]; both sexes, human, plasma, inhaled or intranasal, n = 22, read-out: AUC0-4 h of Bz-HC, Mean (SD))?
The AUC(0-t) was 3.14 ng·h/mL.

And the AUC(0-t) ([2]; both sexes, human, plasma, inhaled or intranasal, n = 22, read-out: AUC0-4 h of Bz-HC, Median (Min-Max))?
The AUC(0-t) was 2.36 ng·h/mL.

And the AUC(0-t) ([2]; both sexes, human, plasma, inhaled or intranasal, n = 22, read-out: AUC0-6 h of Bz-HC, Mean (SD))?
The AUC(0-t) was 3.4 ng·h/mL.

And the AUC(0-t) ([2]; both sexes, human, plasma, inhaled or intranasal, n = 22, read-out: AUC0-6 h of Bz-HC, Median (Min-Max))?
The AUC(0-t) was 2.56 ng·h/mL.

What about the AUC(0-t) ([2]; both sexes, human, plasma, inhaled or intranasal, n = 22, read-out: AUC0-8 h of Bz-HC, Mean (SD)) of the same compound?
Its AUC(0-t) is 3.51 ng·h/mL.

And the AUC(0-t) ([2]; both sexes, human, plasma, inhaled or intranasal, n = 22, read-out: AUC0-8 h of Bz-HC, Median (Min-Max))?
The AUC(0-t) was 2.62 ng·h/mL.

What about the AUC(0-t) ([2]; both sexes, human, plasma, inhaled or intranasal, n = 22, read-out: AUC0-10 h of Bz-HC, Mean (SD)) of the same compound?
The AUC(0-t) was 3.56 ng·h/mL.

What about the AUC(0-t) ([2]; both sexes, human, plasma, inhaled or intranasal, n = 22, read-out: AUC0-10 h of Bz-HC, Median (Min-Max)) of the same compound?
Its AUC(0-t) is 2.64 ng·h/mL.

And the AUC(0-t) ([2]; both sexes, human, plasma, inhaled or intranasal, n = 22, read-out: AUC0-12 h of Bz-HC, Mean (SD))?
The AUC(0-t) was 3.59 ng·h/mL.

What about the AUC(0-t) ([2]; both sexes, human, plasma, inhaled or intranasal, n = 22, read-out: AUC0-12 h of Bz-HC, Median (Min-Max)) of the same compound?
Its AUC(0-t) is 2.64 ng·h/mL.

And the AUC(0-t) ([2]; both sexes, human, plasma, inhaled or intranasal, n = 22, read-out: AUC0-24 h of Bz-HC, Mean (SD))?
The AUC(0-t) was 3.61 ng·h/mL.

What about the AUC(0-t) ([2]; both sexes, human, plasma, inhaled or intranasal, n = 22, read-out: AUC0-24 h of Bz-HC, Median (Min-Max)) of the same compound?
The AUC(0-t) was 2.65 ng·h/mL.

What about the AUC(0-inf) ([2]; both sexes, human, plasma, inhaled or intranasal, n = 22, read-out: AUCinf of Bz-HC, Mean (SD)) of the same compound?
The AUC(0-inf) was 3.62 ng·h/mL.

What about the AUC(0-inf) ([2]; both sexes, human, plasma, inhaled or intranasal, n = 22, read-out: AUCinf of Bz-HC, Median (Min-Max)) of the same compound?
The AUC(0-inf) was 2.65 ng·h/mL.

What about the half-life ([2]; both sexes, human, plasma, inhaled or intranasal, n = 22, read-out: t1/2 of Bz-HC, Mean (SD) (converted)) of the same compound?
The half-life was 1.42 h.

And the half-life ([2]; both sexes, human, plasma, inhaled or intranasal, n = 22, read-out: t1/2 of Bz-HC, Median (Min-Max) (converted))?
The half-life was 1.3 h.

And the AUC(0-t) ([2]; both sexes, human, plasma, inhaled or intranasal, n = 23, read-out: AUC0-1.5 h of Bz-HC, Mean (SD))?
The AUC(0-t) was 2.06 ng·h/mL.

What about the AUC(0-t) ([2]; both sexes, human, plasma, inhaled or intranasal, n = 23, read-out: AUC0-1.5 h of Bz-HC, Median (Min-Max)) of the same compound?
Its AUC(0-t) is 1.68 ng·h/mL.

What about the AUC(0-t) ([2]; both sexes, human, plasma, inhaled or intranasal, n = 23, read-out: AUC0-2 h of Bz-HC, Mean (SD)) of the same compound?
The AUC(0-t) was 2.39 ng·h/mL.

And the AUC(0-t) ([2]; both sexes, human, plasma, inhaled or intranasal, n = 23, read-out: AUC0-2 h of Bz-HC, Median (Min-Max))?
The AUC(0-t) was 1.93 ng·h/mL.

And the AUC(0-t) ([2]; both sexes, human, plasma, inhaled or intranasal, n = 23, read-out: AUC0-3 h of Bz-HC, Mean (SD))?
The AUC(0-t) was 2.79 ng·h/mL.

What about the AUC(0-t) ([2]; both sexes, human, plasma, inhaled or intranasal, n = 23, read-out: AUC0-3 h of Bz-HC, Median (Min-Max)) of the same compound?
Its AUC(0-t) is 2.19 ng·h/mL.

And the AUC(0-t) ([2]; both sexes, human, plasma, inhaled or intranasal, read-out: AUC0-0.0833 h of Bz-HC, Mean (SD))?
Its AUC(0-t) is 0.0153 ng·h/mL.

What about the AUC(0-t) ([2]; both sexes, human, plasma, inhaled or intranasal, read-out: AUC0-0.5 h of Bz-HC, Mean (SD)) of the same compound?
Its AUC(0-t) is 0.7 ng·h/mL.

And the AUC(0-t) ([2]; both sexes, human, plasma, inhaled or intranasal, read-out: AUC0-0.5 h of Bz-HC, Median (Min-Max))?
Its AUC(0-t) is 0.666 ng·h/mL.

What about the AUC(0-t) ([2]; both sexes, human, plasma, inhaled or intranasal, read-out: AUC0-0.75 h of Bz-HC, Mean (SD)) of the same compound?
The AUC(0-t) was 1.15 ng·h/mL.

And the AUC(0-t) ([2]; both sexes, human, plasma, inhaled or intranasal, read-out: AUC0-0.75 h of Bz-HC, Median (Min-Max))?
The AUC(0-t) was 0.977 ng·h/mL.

What about the AUC(0-t) ([2]; both sexes, human, plasma, inhaled or intranasal, read-out: AUC0-1 h of Bz-HC, Mean (SD)) of the same compound?
The AUC(0-t) was 1.5 ng·h/mL.

And the AUC(0-t) ([2]; both sexes, human, plasma, inhaled or intranasal, read-out: AUC0-1 h of Bz-HC, Median (Min-Max))?
The AUC(0-t) was 1.24 ng·h/mL.

And the AUC(0-t) ([2]; both sexes, human, plasma, inhaled or intranasal, read-out: AUClast of Bz-HC, Mean (SD))?
Its AUC(0-t) is 3.24 ng·h/mL.

And the AUC(0-t) ([2]; both sexes, human, plasma, inhaled or intranasal, read-out: AUClast of Bz-HC, Median (Min-Max))?
Its AUC(0-t) is 2.41 ng·h/mL.

And the Cmax ([2]; both sexes, human, plasma, inhaled or intranasal, read-out: Cmax of Bz-HC, Mean (SD))?
The Cmax was 2.41 ng/mL.

What about the Cmax ([2]; both sexes, human, plasma, inhaled or intranasal, read-out: Cmax of Bz-HC, Median (Min-Max)) of the same compound?
Its Cmax is 2.16 ng/mL.

And the concentration at […] ([2]; both sexes, human, plasma, other: intranasal, at 0.25 hour post-dose, read-out: highest mean (SD) plasma concentration of Bz-HC)?
Its concentration at […] is 2.01 ng/mL.

What about the AUC(0-t) ([2]; both, human, plasma, inhaled or intranasal, AUC0-[…] of Bz-HC, Mean (SD), read-out: AUC0-0.25 h of Bz-HC, Mean (SD)) of the same compound?
The AUC(0-t) was 0.213 ng·h/mL.

And the AUC(0-t) ([2]; both, human, plasma, inhaled or intranasal, AUC0-[…] of Bz-HC, Median (Min-Max), read-out: AUC0-0.25 h of Bz-HC, Median (Min-Max))?
The AUC(0-t) was 0.197 ng·h/mL.

And the half-life ([3]; human, plasma, inhaled or intranasal)?
Its half-life is 1.11 h.

What about the “Tlast of Bz-HC (time of the last quantifiable concentration), median” value ([3]; intranasal crushed Bz-HC.HCl/APAP 13.34/650 mg) of the same compound?
Its value is 6.22 h.

And the “bioequivalence to Norco (in words)” value [4]?
Its value is “bioequivalent”.
